The assay concerns the target T1, Mcl-1 (Homo sapiens, UniProt Q07820).
T1 construct: gene MCL1; recombinant GST-Mcl-1
Description: fluorescence polarization with recombinant GST-Mcl-1; supported by GST pull-down showing disruption of Mcl-1/Bak. Type of assay: binding. For orientation: In fluorescence polarisation assays a small probe gives low polarisation when free and higher when bound to something large.

T1 sequence (Q07820 whole entry): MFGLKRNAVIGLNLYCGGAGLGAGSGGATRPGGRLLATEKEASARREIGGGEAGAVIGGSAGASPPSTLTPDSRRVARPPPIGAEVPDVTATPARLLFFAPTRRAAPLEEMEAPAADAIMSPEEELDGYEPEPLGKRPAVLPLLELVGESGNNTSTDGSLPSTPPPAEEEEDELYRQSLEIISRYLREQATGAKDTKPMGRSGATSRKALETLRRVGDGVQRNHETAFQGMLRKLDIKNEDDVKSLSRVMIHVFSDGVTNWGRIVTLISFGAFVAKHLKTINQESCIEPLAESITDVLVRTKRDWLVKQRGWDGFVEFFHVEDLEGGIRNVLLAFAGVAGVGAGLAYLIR

For the compound `Cc1cc(Cl)ccc1NC(=O)C(=O)C(C(=O)c1ccc2ccccc2c1)C1OC(=O)c2ccccc21` (stereo not shown) [MI-238], the inhibition constant (Ki) is 450 ± 50 nM.

Broadly, the Ki is the dissociation constant of the complex between target and ligand, obtained from inhibition or displacement.

Source of the values: paper PMC9854187, “A novel Mcl-1 inhibitor synergizes with venetoclax to induce apoptosis in cancer cells” (Molecular Medicine, 2023).
